The values that follow come from patent publication US9650371B2, “Sulfur-containing heterocyclic derivative having beta secretase inhibitory activity” (Shionogi & Co., Ltd., priority 2008, dated 2017).

The target of the data set is human ether-a-go-go related gene (hERG) channel (Homo sapiens (Human), UniProt Q12809). Briefly: hERG test. The data set is classed as cell-based. To be noted: HEK293 cells expressing hERG, whole cell patch clamp, 10 minutes. An excerpt:
For the purpose of assessing risk of an electrocardiogram QT interval prolongation, effects on delayed rectifier K+ current (IKr), which plays an important role in the ventricular repolarization process, was studied using HEK293 cells expressing human ether-a-go-go related gene (hERG) channel.
After a cell was retained at a membrane potential of −80 mV by whole cell patch clamp method using an automated patch clamp system (PatchXpress 7000A, Axon Instruments Inc.), IKr induced by depolarization pulse stimulation at +50 mV for 2 seconds and, further, repolarization pulse stimulation at −50 mV for 2 seconds was recorded. […] From the recording IKr, an absolute value of the tail peak current was measured based on the current value at the resting membrane potential using an analysis software (DataXpress ver.1, Molecular Devices Corporation). Further, the % inhibition relative to the tail peak current before application of the test substance was calculated, and compared with the vehicle-applied group (0.1% dimethyl sulfoxide solution) to assess influence of the test substance on IKr.
Background: hERG is a cardiac potassium channel; its block is linked to QT prolongation.

Chain of human ether-a-go-go related gene (hERG) channel (Q12809 whole entry): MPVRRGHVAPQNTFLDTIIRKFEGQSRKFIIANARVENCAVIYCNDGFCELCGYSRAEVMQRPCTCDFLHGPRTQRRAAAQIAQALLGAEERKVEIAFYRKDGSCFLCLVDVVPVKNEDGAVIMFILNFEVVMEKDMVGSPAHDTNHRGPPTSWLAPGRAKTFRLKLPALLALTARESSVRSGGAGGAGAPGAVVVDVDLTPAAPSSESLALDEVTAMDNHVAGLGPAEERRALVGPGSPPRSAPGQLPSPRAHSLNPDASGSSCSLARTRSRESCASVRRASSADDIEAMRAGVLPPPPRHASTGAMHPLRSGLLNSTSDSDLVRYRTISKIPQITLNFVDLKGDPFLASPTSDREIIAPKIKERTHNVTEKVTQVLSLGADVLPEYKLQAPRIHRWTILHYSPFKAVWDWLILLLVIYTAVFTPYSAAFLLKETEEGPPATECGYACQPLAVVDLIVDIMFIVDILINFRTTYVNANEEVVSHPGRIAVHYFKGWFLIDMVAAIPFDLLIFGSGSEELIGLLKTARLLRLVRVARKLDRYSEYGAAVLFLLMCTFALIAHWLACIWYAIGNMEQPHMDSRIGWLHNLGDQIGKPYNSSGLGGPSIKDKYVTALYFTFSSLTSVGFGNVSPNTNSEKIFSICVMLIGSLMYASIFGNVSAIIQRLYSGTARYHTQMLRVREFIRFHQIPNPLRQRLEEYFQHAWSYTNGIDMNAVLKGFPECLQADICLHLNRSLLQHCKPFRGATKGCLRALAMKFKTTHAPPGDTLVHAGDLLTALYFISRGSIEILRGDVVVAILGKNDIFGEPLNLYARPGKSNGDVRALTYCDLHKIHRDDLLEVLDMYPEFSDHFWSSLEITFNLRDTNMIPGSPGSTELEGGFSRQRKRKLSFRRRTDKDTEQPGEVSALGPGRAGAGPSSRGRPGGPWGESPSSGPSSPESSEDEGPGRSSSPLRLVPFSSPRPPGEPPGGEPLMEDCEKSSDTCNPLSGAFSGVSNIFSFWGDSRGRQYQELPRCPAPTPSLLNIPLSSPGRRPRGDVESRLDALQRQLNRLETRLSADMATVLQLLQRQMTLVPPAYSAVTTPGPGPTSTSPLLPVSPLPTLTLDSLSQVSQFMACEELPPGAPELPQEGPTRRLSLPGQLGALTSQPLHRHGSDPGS

Consider `CNC(=O)c1ccc(-c2ccc(F)c([C@]3(C)C=CSC(N)=N3)c2)cn1` [Compound 92], for which the “% inhibition of tail peak current (IKr)” value was found to be 7.9%. With `C=C1C[C@@](C)(c2cc(NC(=O)c3cnc(OC)cn3)cnc2C)N=C(N)S1` [Compound 102], the “% inhibition of tail peak current (IKr)” value was 2.3%.
